Experimental data from patent US10023559B2 (Hoffmann-La Roche Inc., priority 2014, dated 2018).

Key:
rat TAAR1 = rat TAAR1 (Rattus norvegicus (Rat), UniProt Q923Y9); assay: Radioligand binding assay on rat TAAR1; conditions: for Ki: read-out: Ki(μM) rat, rat TAAR1, HEK-293 membranes, second value of cell pair mouse/rat
Protocol: (§1) Membrane Preparation and Radioligand Binding.
HEK-293 cells stably expressing rat TAAR1 were maintained at 37° C. and 5% CO2 in DMEM high glucose medium, containing fetal calf serum (10%, heat inactivated for 30 min at 56° C.), penicillin/streptomycin (1%), and 375 μg/ml geneticin (Gibco). Cells were released from culture flasks using trypsin/EDTA, harvested, washed twice with ice-cold PBS (without Ca^2+ and Mg^2+), pelleted at 1,000 rpm for 5 min at 4° C., frozen and stored at −80° C. Frozen pellets were suspended in 20 ml HEPES-NaOH (20 mM, pH 7.4) containing 10 mM EDTA and homogenized with a Polytron (PT 6000, Kinematica) at 14,000 rpm for 20 s. The homogenate was centrifuged at 48,000×g for 30 min at 4° C. Subsequently, the supernatant was removed and discarded, and the pellet resuspended in 20 ml HEPES-NaOH (20 mM, pH 7.4) containing 0.1 mM EDTA using the Polytron (20 s at 14,000 rpm). This procedure was repeated and the final pellet resuspended in HEPES-NaOH containing 0.1 mM EDTA and homogenized using the Polytron. Typically, aliquots of 2 ml membrane portions were stored at −80° C. With each new membrane batch the dissociation constant (Kd) was determined via a saturation curve. […] Nonspecific binding was defined as the amount of [H]—(S)-4-[(ethyl-phenyl-amino)-methyl]-4,5-dihydro-oxazol-2-ylamine bound in the presence of 10 M unlabeled ligand. All compounds were tested at a broad range of concentrations (10 pM to 10 μM) in duplicates. […] The 96 deep well plates were incubated for 1 hr at 4° C. Incubations were terminated by rapid filtration through Unifilter-96 plates (Packard Instrument Company) and glass filters GF/C (Perkin Elmer) presoaked for 1 hr in polyethylenimine (0.3%) and washed 3 times with 1 ml of cold binding buffer. After addition of 45 μl of Microscint 40 (PerkinElmer) the Unifilter-96 plate was sealed and after 1 hr the radioactivity counted using a TopCount Microplate Scintillation Counter (Packard Instrument Company).

mouse TAAR1 = mouse TAAR1 (Mus musculus (Mouse), UniProt Q923Y8); assay: Radioligand binding assay on mouse TAAR1
Chain of mouse TAAR1 (Q923Y8 whole entry): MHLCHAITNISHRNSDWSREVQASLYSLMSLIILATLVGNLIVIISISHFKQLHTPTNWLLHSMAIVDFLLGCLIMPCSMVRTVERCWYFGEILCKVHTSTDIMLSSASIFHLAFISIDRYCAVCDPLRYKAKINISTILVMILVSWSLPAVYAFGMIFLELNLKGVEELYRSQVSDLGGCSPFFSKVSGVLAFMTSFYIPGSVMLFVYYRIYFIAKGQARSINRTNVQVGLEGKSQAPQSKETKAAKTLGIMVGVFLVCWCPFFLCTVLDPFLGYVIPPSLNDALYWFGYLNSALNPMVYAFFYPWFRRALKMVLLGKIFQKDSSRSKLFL
Protocol: as §1
HEK-293 cells stably expressing mouse TAAR1 were maintained at 37° C. and 5% CO2 in DMEM high glucose medium, containing fetal calf serum (10%, heat inactivated for 30 min at 56° C.), penicillin/streptomycin (1%), and 375 μg/ml geneticin (Gibco). Cells were released from culture flasks using trypsin/EDTA, harvested, washed twice with ice-cold PBS (without Ca^2+ and Mg^2+), pelleted at 1,000 rpm for 5 min at 4° C., frozen and stored at −80° C. Frozen pellets were suspended in 20 ml HEPES-NaOH (20 mM, pH 7.4) containing 10 mM EDTA and homogenized with a Polytron (PT 6000, Kinematica) at 14,000 rpm for 20 s. The homogenate was centrifuged at 48,000×g for 30 min at 4° C. Subsequently, the supernatant was removed and discarded, and the pellet resuspended in 20 ml HEPES-NaOH (20 mM, pH 7.4) containing 0.1 mM EDTA using the Polytron (20 s at 14,000 rpm). This procedure was repeated and the final pellet resuspended in HEPES-NaOH containing 0.1 mM EDTA and homogenized using the Polytron. Typically, aliquots of 2 ml membrane portions were stored at −80° C. With each new membrane batch the dissociation constant (Kd) was determined via a saturation curve. […] Nonspecific binding was defined as the amount of ^3[H]—(S)-4-[(ethyl-phenyl-amino)-methyl]-4,5-dihydro-oxazol-2-ylamine bound in the presence of 10 M unlabeled ligand. All compounds were tested at a broad range of concentrations (10 pM to 10 μM) in duplicates. […] The 96 deep well plates were incubated for 1 hr at 4° C. Incubations were terminated by rapid filtration through Unifilter-96 plates (Packard Instrument Company) and glass filters GF/C (Perkin Elmer) presoaked for 1 hr in polyethylenimine (0.3%) and washed 3 times with 1 ml of cold binding buffer. After addition of 45 μl of Microscint 40 (PerkinElmer) the Unifilter-96 plate was sealed and after 1 hr the radioactivity counted using a TopCount Microplate Scintillation Counter (Packard Instrument Company).

Chain of rat TAAR1 (Q923Y9 whole entry): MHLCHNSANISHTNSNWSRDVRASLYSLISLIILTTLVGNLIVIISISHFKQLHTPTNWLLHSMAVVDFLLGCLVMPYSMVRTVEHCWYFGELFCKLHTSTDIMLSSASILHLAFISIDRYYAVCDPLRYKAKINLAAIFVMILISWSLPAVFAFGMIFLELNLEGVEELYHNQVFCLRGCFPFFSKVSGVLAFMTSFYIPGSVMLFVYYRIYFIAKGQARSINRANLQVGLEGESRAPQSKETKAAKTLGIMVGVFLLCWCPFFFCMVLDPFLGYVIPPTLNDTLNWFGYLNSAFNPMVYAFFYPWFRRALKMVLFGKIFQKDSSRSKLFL

SMILES | Ki (rat TAAR1) [µM] | Ki (mouse TAAR1) [µM] | Kd (rat TAAR1; read-out: dissociation constant (Kd) of the radioligand, rat TAAR1 membranes, saturation curve, usual value) [µM] | Kd (mouse TAAR1; read-out: dissociation constant (Kd) of the radioligand, mouse TAAR1 membranes, saturation curve, usual value) [µM]
O=C(Nc1ccc(C[C@@H]2NC[C@@H]2F)cc1)c1cnc(C2CC2)nc1 [Example 129, 2-cyclopropyl-N-(4-(((2S,3S)-3-fluoroazetidin-2-yl)methyl)phenyl)pyrimidine-5-carboxamide] | 0.055 | 0.0089 |  | 
O=C(Nc1ccc(C[C@@H]2NC[C@@H]2F)cc1)c1cnc(C(F)(F)F)nc1 [Example 130, N-(4-(((2S,3S)-3-fluoroazetidin-2-yl)methyl)phenyl)-2-(trifluoromethyl)pyrimidine-5-carboxamide] | 0.0156 | 0.0282 |  | 
CC(C)c1cc(C(=O)Nc2ccc(C[C@@H]3NC[C@@H]3F)cc2)n(C)n1 [Example 131, N-(4-(((2S,3S)-3-fluoroazetidin-2-yl)methyl)phenyl)-3-isopropyl-1-methyl-1H-pyrazole-5-carboxamide] | 0.126 | 0.119 |  | 
CCN(C[C@H]1COC(N)=N1)c1ccccc1 [reference compound] |  |  | ~0.0023 | ~0.0007
